Read-outs that look alike come from different tables or passages of the source.
Target: T1, Human DGAT1 (Homo sapiens, UniProt O75907)
T1 construct: my translation of the primer: M-G-DYKDDDD-GDRGSSRRR) (N); made in house; host or cells: Sf9 insect cells (recombinant baculovirus BAC-DGAT1, pFASTBAC1); microsome fraction
T1 sequence (O75907 1-488): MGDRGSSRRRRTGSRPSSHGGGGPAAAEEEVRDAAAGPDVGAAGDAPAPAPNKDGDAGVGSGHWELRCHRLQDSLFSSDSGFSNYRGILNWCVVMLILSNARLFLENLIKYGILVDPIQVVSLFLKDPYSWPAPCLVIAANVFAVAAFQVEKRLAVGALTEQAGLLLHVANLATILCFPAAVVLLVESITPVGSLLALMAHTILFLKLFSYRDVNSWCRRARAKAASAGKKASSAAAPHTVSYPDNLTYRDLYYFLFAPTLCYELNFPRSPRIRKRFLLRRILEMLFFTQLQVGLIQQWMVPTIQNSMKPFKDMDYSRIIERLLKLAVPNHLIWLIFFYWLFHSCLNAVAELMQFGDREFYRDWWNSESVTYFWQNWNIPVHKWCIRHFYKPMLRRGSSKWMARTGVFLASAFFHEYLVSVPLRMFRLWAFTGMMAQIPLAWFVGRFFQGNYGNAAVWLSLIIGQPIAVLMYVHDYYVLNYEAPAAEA
Test: DGAT inhibitory activity: [14C]-triglyceride synthesis by DGAT1 high expression Sf9 microsome
Type: biochemical
Conditions: 25 μM [14C]-Oleoyl-CoA, 32° C., 15 min, read-out: DGAT inhibitory activity (according to IC50)
Summary of the method: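 DGAT1 was overexpressed from recombinant baculovirus in Sf9 cells, and microsomes from these cells were the enzyme source. Reactions ran in 100 mM Tris-HCl pH 7.5, 250 mM sucrose, 150 mM MgCl2 and 0.01% BSA. [14C]-triglyceride was extracted into chloroform, separated by TLC and quantified by imaging plate, with inhibition calculated against control and blank (no microsome) counts.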

[1] = Table 2, 25 μM dioleoylglycerol
[2] = Table 1, 25 μM dioleoylglycerol

| SMILES | IC50 [1] | IC50 [2] |
| --- | --- | --- |
| CCOc1ccc(C(=O)CCC(=O)Nc2cc(-c3ccccc3)c(Cc3ccccc3)s2)cc1Cl [Example 70, N-(5-benzyl-4-phenyl-2-thienyl)-4-(3-chloro-4-ethoxyphenyl)-4-oxobutanamide] | 50 to 500 nM |  |
| CCOc1ccc(C(=O)CCC(=O)Nc2cc(-c3ccccc3)c3ccccc3n2)cc1OCC [Example 74, 4-(3,4-diethoxyphenyl)-4-oxo-N-(4-phenylquinolin-2-yl)butanamide] | ≤ 10 nM |  |
| CCOc1ccc(C(=O)CCC(=O)Nc2nc(-c3ccccc3)c(Cc3ccccc3)s2)cc1OCC [Example 3, N-(5-benzyl-4-phenyl-1,3-thiazol-2-yl)-4-(3,4-diethoxyphenyl)-4-oxobutanamide] |  | ≤ 10 nM |
| CCOc1ccc(C(=O)CCC(=O)Nc2cc(-c3ccc(OCCN)cc3)c3ccccc3n2)cc1OCC [Example 94, N-{4-[4-(2-aminoethoxy)phenyl]quinolin-2-yl}-4-(3,4-diethoxyphenyl)-4-oxobutanamide] | 50 to 500 nM |  |
| CCOc1cc(C)c(C(=O)CCC(=O)Nc2cc(-c3ccccc3)c3cc(Cl)ccc3n2)cc1OCC [Example 73, N-(6-chloro-4-phenylquinolin-2-yl)-4-(4,5-diethoxy-2-methylphenyl)-4-oxobutanamide] | 50 to 500 nM |  |
| CCOc1ccc(C(=O)CCC(=O)Nc2cc(-c3ccc(OCCN4CCOCC4)cc3)c3ccccc3n2)cc1OCC [Example 90, 4-(3,4-diethoxyphenyl)-N-{4-[4-(2-(morpholin-4-yl)ethoxy)phenyl]quinolin-2-yl}-4-oxobutanamide] | 50 to 500 nM |  |
| CCOc1ccc(C(=O)CCC(=O)Nc2cc(OCCC(C)C)cc(-c3ccccc3)n2)cc1OCC [Example 41, 4-(3,4-diethoxyphenyl)-N-(4-(3-methylbutoxy)-6-phenylpyridin-2-yl)-4-oxobutanamide] |  | 50 to 500 nM |
| CCOc1ccc(C(=O)CCC(=O)Nc2cc(-c3ccccc3)c(Cc3ccccc3)s2)cc1Br [Example 98, N-(5-benzyl-4-phenyl-2-thienyl)-4-(3-bromo-4-ethoxyphenyl)-4-oxobutanamide] | 50 to 500 nM |  |
| CCOc1ccc(C(=O)CCC(=O)Nc2cc(-c3ccc(C4CCCCC4)cc3)cc(-c3ccccc3)n2)cc1OCC [Example 110, N-[4-(4-cyclohexylphenyl)-6-phenylpyridin-2-yl]-4-(3,4-diethoxyphenyl)-4-oxobutanamide] | 500 to 10000 nM |  |
| CCOc1ccc(C(=O)CCC(=O)Nc2cc(-c3ccccn3)c3ccccc3n2)cc1OCC [Example 89, 4-(3,4-diethoxyphenyl)-4-oxo-N-[4-(pyridin-2-yl)quinolin-2-yl]butanamide] | 50 to 500 nM |  |
| CCOc1cccc(C(=O)CCC(=O)Nc2cc(-c3ccccc3)cc(-c3ccccc3)n2)c1 [Example 103, N-(4,6-diphenylpyridin-2-yl)-4-(3-ethoxyphenyl)-4-oxobutanamide] | 500 to 10000 nM |  |
| O=C(CCC(=O)c1ccc2c(c1)CCO2)Nc1cc(-c2ccncc2)cc(-c2ccccc2)n1 [Example 116, 4-(2,3-dihydro-1-benzofuran-5-yl)-4-oxo-N-(6-phenyl-4,4′-bipyridin-2-yl)butanamide] | 500 to 10000 nM |  |
| CCOc1ccc(C(=O)CCC(=O)Nc2cc(-c3ccc(CCC(=O)O)cc3)cc(-c3ccccc3)n2)cc1OCC [Example 125, 3-[4-(2-{[4-(3,4-diethoxyphenyl)-4-oxobutanoyl]amino}-6-phenylpyridin-4-yl)phenyl]propanoic acid] | 500 to 10000 nM |  |
| CCOC(=O)c1c(NC(=O)CCC(=O)c2ccc(OCC)c(OCC)c2)sc(Cc2ccccc2)c1-c1ccccc1 [Example 96, ethyl 5-benzyl-2-{[4-(3,4-diethoxyphenyl)-4-oxobutanoyl]amino}-4-phenylthiophene-3-carboxylate] | 50 to 500 nM |  |
| CCOc1ccc(C(=O)CCC(=O)Nc2cc(-c3ccccc3)c3ccc(/C=C/C(=O)OC(C)(C)C)cc3n2)cc1OCC [Example 82, tert-butyl (2E)-3-(2-{[4-(3,4-diethoxyphenyl)-4-oxobutanoyl]amino}-4-phenylquinoline-7-yl)acrylate] | 50 to 500 nM |  |
| CCOc1ccc(C(=O)CCC(=O)Nc2cc(-c3ccccc3)c3ccc(/C=C/C#N)cc3n2)cc1OCC [Example 86, N-{7-[(E)-2-cyanovinyl]-4-phenylquinolin-2-yl}-4-(3,4-diethoxyphenyl)-4-oxobutanamide] | 10 to 50 nM |  |
| O=C(CCC(=O)c1ccccc1)Nc1nc(-c2ccccc2)c(Cc2ccccc2)s1 [Example 2, N-(5-benzyl-4-phenyl-1,3-thiazol-2-yl)-4-oxo-4-phenylbutanamide] |  | 50 to 500 nM |
| O=C(CCC(=O)c1ccc2c(c1)CCCC2)Nc1cc(-c2ccccc2)cc(-c2ccccc2)n1 [Example 105, N-(4,6-diphenylpyridin-2-yl)-4-oxo-4-(5,6,7,8-tetrahydronaphthalen-2-yl)butanamide] | 50 to 500 nM |  |
| CCOC(=O)/C=C/c1ccc(Cc2sc(NC(=O)CCC(=O)c3ccc(OCC)c(OCC)c3)cc2-c2ccccc2)cc1 [Example 51, ethyl (2E)-3-{4-[(5-{[4-(3,4-diethoxyphenyl)-4-oxobutanoyl]amino}-3-phenyl-2-thienyl)methyl]phenyl}acrylate] |  | 50 to 500 nM |
| CCOc1ccc(C(=O)CCC(=O)Nc2cc(-c3cccc(CO)c3)cc(-c3ccccc3)n2)cc1OCC [Example 136, 4-(3,4-diethoxyphenyl)-N-{4-[3-(hydroxymethyl)phenyl]-6-phenylpyridin-2-yl}-4-oxobutanamide] | 50 to 500 nM |  |
| CCOc1ccc(C(=O)CCC(=O)Nc2cc(-c3ccccc3)cc(-c3ccccc3)n2)cc1 [Example 102, N-(4,6-diphenylpyridin-2-yl)-4-(4-ethoxyphenyl)-4-oxobutanamide] | 50 to 500 nM |  |
| CCOc1ccc(C(=O)CCC(=O)Nc2cc(-c3cccc(OC(F)(F)F)c3)cc(-c3ccccc3)n2)cc1OCC [Example 143, 4-(3,4-diethoxyphenyl)-4-oxo-N-{6-phenyl-4-[3-(trifluoromethoxy)phenyl]pyridin-2-yl}butanamide] | 50 to 500 nM |  |
| CCOc1ccc(C(=O)CCC(=O)Nc2cc(-c3ccccc3)c(C(=O)OC(C)(C)C)s2)cc1OCC [Example 56, tert-butyl 5-{[4-(3,4-diethoxyphenyl)-4-oxobutanoyl]amino}-3-phenylthiophene-2-carboxylate] |  | 50 to 500 nM |

Results, then the compound that gave them:

| IC50 [1] | IC50 [2] | SMILES |
| --- | --- | --- |
| 500 to 10000 nM |  | CCOc1ccc(C(=O)CCC(=O)Nc2cc(-c3ccccc3C(=O)O)cc(-c3ccccc3)n2)cc1OCC [Example 148, 2-(2-{[4-(3,4-diethoxyphenyl)-4-oxobutanoyl]amino}-6-phenylpyridin-4-yl)benzoic acid] |
| 10 to 50 nM |  | N#CCc1cccc(-c2cc(NC(=O)CCC(=O)c3ccc4c(c3)CCO4)nc(-c3ccccc3)c2)c1 [Example 164, N-{4-[3-(cyanomethyl)phenyl]-6-phenylpyridin-2-yl}-4-(2,3-dihydro-1-benzofuran-5-yl)-4-oxobutanamide] |
| 500 to 10000 nM |  | CCCCCC/C=C/c1cc(NC(=O)CCC(=O)c2ccc(OCC)c(OCC)c2)nc(-c2ccccc2)c1 [Example 152, 4-(3,4-diethoxyphenyl)-N-{4-[(1E)-octa-1-en-1-yl]-6-phenylpyridin-2-yl}-4-oxobutanamide] |
| 10 to 50 nM |  | CCOc1ccc(C(=O)CCC(=O)Nc2cc(-c3cc(C)c(O)c(C)c3)cc(-c3ccccc3)n2)cc1OCC [Example 151, 4-(3,4-diethoxyphenyl)-N-[4-(4-hydroxy-3,5-dimethylphenyl)-6-phenylpyridin-2-yl]-4-oxobutanamide] |
| 50 to 500 nM |  | O=C(CCC(=O)c1ccc2c(c1)CCO2)Nc1cc(-c2cccc(CO)c2)cc(-c2ccccc2)n1 [Example 167, 4-(2,3-dihydro-1-benzofuran-5-yl)-N-{4-[3-(hydroxymethyl)phenyl]-6-phenylpyridin-2-yl}-4-oxobutanamide] |
| 50 to 500 nM |  | COc1ccc(-c2cc(NC(=O)CCC(=O)c3ccc4c(c3)CCO4)nc(-c3ccccc3)c2)cc1 [Example 155, 4-(2,3-dihydro-1-benzofuran-5-yl)-N-[4-(4-methoxyphenyl)-6-phenylpyridin-2-yl]-4-oxobutanamide] |
| 500 to 10000 nM |  | CCOc1ccc(C(=O)CCC(=O)Nc2cc(-c3cc(OC)c(OC)c(OC)c3)cc(-c3ccccc3)n2)cc1OCC [Example 150, 4-(3,4-diethoxyphenyl)-4-oxo-N-[6-phenyl-4-(3,4,5-trimethoxyphenyl)pyridin-2-yl]butanamide] |
| 500 to 10000 nM |  | O=C(CCC(=O)c1ccc2c(c1)CCO2)Nc1cc(-c2cccc(C(=O)O)c2)cc(-c2ccccc2)n1 [Example 169, 3-(2-{[4-(2,3-dihydro-1-benzofuran-5-yl)-4-oxobutanoyl]amino}-6-phenylpyridin-4-yl)benzoic acid] |
| 50 to 500 nM |  | O=C(CCC(=O)c1ccc2c(c1)CCO2)Nc1cc(-c2ccc(CO)cc2)cc(-c2ccccc2)n1 [Example 156, 4-(2,3-dihydro-1-benzofuran-5-yl)-N-{4-[4-(hydroxymethyl)phenyl]-6-phenylpyridin-2-yl}-4-oxobutanamide] |
| ≤ 10 nM |  | CCOc1ccc(C(=O)CCC(=O)Nc2cc(-c3ccccc3CO)cc(-c3ccccc3)n2)cc1OCC [Example 147, 4-(3,4-diethoxyphenyl)-N-{4-[2-(hydroxymethyl)phenyl]-6-phenylpyridin-2-yl}-4-oxobutanamide] |

From US20090048258A1, “Amide Compound” (priority 2005, published 2009)
